# Results reported in article doi:10.1101/2020.07.01.182642v1 (biorxiv, 2020).
# What was measured:
# [1] = target: CLK1 (full-length) (Homo sapiens, UniProt P49759); assay: cell-based; design: species or system HEK293T
# [2] = target: DYRK1A (Homo sapiens, UniProt Q13627); conditions: binder
# [3] = target: STK3 (Homo sapiens, UniProt Q13188); conditions: binder
# [4] = target: RPS6KA3 (Homo sapiens, UniProt P51812); conditions: binder
# [5] = target: ACVR2B (Homo sapiens, UniProt Q13705); conditions: binder
# [6] = target: CAMKK2 (Homo sapiens, UniProt Q96RR4); conditions: binder
# [7] = target: BMP2K (Homo sapiens, UniProt Q9NSY1); conditions: binder
# [8] = target: STK17A (Homo sapiens, UniProt Q9UEE5); conditions: binder
# [9] = target: TGFBR1 (Homo sapiens, UniProt P36897); conditions: binder
# [10] = target: MAPK11 (Homo sapiens, UniProt Q15759); conditions: binder
# [11] = target: GRK1 (Homo sapiens, UniProt Q15835); conditions: binder
# [12] = target: STK4 (Homo sapiens, UniProt Q13043); conditions: binder
# [13] = target: PRKAA2 (Homo sapiens, UniProt P54646); conditions: binder
# [14] = target: PAK6 (Homo sapiens, UniProt Q9NQU5); conditions: binder
# [15] = target: WNK3 (Homo sapiens, UniProt Q9BYP7); conditions: binder
# [16] = target: STK25 (Homo sapiens, UniProt O00506); conditions: binder
# [17] = target: MAP2K6 (Homo sapiens, UniProt P52564); conditions: binder
# [18] = target: CLK1 (H148-I484) (Homo sapiens, UniProt P49759); conditions: binder
# [19] = target: CLK3 (R134-T484) (Homo sapiens, UniProt P49761); conditions: binder
# [20] = target: CDK4 (Homo sapiens, UniProt P11802); conditions: binder
# [21] = target: RIPK3 (Homo sapiens, UniProt Q9Y572); conditions: binder
# [22] = target: CDC42BPB (Homo sapiens, UniProt Q9Y5S2); conditions: binder
# [23] = target: CDKL5 (Homo sapiens, UniProt O76039); conditions: binder
# [24] = target: NEK9 (Homo sapiens, UniProt Q8TD19); conditions: binder
# [25] = target: MAPK7 (Homo sapiens, UniProt Q13164); conditions: binder
# [26] = target: MYLK (Homo sapiens, UniProt Q15746); conditions: binder
# [27] = target: MAPK13 (Homo sapiens, UniProt O15264); conditions: binder
# [28] = target: CDK17 (Homo sapiens, UniProt Q00537); conditions: binder
# [29] = target: STK32A (Homo sapiens, UniProt Q8WU08); conditions: binder
# [30] = target: LIMK1 (Homo sapiens, UniProt P53667); conditions: binder
# BMP2K, sequence (Q9NSY1 whole entry): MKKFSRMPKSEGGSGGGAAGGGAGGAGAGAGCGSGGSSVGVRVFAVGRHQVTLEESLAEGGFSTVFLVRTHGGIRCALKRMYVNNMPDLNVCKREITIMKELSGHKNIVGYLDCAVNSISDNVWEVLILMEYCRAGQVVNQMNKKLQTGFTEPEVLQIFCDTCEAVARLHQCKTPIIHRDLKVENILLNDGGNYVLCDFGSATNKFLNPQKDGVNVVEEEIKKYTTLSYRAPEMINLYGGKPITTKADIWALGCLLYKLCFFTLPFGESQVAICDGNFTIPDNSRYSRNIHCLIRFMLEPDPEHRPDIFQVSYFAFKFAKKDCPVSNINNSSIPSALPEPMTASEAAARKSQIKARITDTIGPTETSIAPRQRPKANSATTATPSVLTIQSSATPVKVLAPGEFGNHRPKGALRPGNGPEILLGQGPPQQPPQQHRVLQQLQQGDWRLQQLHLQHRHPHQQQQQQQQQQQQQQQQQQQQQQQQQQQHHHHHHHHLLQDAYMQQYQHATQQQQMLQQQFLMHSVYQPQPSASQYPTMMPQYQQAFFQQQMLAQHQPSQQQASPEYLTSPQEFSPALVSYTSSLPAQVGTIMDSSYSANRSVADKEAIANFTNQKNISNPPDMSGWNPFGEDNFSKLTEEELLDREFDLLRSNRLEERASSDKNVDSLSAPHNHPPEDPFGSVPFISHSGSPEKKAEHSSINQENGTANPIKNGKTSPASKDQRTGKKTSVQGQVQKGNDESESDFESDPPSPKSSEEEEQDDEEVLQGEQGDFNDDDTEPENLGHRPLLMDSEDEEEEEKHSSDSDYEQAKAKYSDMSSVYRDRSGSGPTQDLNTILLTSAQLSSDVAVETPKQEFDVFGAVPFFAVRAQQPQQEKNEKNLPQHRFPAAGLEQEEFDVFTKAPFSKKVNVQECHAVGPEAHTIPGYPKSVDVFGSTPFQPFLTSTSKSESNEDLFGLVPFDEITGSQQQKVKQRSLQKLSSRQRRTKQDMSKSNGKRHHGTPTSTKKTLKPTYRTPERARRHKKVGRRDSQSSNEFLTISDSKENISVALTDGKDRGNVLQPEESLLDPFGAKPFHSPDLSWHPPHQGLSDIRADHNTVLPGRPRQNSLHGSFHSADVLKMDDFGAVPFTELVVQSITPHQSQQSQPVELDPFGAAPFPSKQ
# CLK3 (R134-T484), sequence (P49761 134-484): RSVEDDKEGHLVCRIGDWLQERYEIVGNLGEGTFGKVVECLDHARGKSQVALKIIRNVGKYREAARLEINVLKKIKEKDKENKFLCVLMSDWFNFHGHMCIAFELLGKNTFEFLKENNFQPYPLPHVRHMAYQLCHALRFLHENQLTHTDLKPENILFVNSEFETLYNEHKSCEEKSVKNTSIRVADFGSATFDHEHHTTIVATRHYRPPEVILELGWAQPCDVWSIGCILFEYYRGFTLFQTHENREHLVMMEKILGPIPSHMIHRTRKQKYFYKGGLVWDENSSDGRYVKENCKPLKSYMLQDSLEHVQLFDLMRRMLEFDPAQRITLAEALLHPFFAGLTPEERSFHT
# RPS6KA3, sequence (P51812 whole entry): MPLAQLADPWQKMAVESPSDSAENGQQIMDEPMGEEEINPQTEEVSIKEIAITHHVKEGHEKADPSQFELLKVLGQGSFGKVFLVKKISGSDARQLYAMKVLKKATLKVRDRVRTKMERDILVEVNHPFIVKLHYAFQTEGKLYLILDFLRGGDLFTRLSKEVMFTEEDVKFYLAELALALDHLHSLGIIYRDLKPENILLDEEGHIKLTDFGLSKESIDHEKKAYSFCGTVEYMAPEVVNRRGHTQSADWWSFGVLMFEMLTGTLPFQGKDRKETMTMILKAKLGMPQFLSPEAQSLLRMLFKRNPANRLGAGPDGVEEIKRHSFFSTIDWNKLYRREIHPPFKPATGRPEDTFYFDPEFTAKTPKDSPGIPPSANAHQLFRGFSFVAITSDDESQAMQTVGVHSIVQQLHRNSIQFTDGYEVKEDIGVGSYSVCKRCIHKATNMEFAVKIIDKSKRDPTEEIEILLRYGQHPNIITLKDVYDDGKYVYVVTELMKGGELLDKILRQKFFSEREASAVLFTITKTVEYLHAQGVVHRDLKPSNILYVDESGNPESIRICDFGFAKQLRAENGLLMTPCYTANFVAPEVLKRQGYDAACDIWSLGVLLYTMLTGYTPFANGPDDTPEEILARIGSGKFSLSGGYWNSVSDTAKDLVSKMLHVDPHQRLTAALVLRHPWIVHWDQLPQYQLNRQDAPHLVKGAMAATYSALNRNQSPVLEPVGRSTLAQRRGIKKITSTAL
# CLK1 (H148-I484), sequence (P49759 148-484): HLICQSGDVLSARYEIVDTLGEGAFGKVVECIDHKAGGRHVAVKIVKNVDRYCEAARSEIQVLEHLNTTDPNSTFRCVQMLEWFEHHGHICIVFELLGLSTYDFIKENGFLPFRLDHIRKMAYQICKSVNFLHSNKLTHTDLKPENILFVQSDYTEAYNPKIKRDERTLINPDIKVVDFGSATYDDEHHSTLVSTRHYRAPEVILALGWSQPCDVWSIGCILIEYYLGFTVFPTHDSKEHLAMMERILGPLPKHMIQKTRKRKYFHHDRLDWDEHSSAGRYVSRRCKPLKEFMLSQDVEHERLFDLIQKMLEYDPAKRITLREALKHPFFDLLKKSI
# WNK3, sequence (Q9BYP7 whole entry): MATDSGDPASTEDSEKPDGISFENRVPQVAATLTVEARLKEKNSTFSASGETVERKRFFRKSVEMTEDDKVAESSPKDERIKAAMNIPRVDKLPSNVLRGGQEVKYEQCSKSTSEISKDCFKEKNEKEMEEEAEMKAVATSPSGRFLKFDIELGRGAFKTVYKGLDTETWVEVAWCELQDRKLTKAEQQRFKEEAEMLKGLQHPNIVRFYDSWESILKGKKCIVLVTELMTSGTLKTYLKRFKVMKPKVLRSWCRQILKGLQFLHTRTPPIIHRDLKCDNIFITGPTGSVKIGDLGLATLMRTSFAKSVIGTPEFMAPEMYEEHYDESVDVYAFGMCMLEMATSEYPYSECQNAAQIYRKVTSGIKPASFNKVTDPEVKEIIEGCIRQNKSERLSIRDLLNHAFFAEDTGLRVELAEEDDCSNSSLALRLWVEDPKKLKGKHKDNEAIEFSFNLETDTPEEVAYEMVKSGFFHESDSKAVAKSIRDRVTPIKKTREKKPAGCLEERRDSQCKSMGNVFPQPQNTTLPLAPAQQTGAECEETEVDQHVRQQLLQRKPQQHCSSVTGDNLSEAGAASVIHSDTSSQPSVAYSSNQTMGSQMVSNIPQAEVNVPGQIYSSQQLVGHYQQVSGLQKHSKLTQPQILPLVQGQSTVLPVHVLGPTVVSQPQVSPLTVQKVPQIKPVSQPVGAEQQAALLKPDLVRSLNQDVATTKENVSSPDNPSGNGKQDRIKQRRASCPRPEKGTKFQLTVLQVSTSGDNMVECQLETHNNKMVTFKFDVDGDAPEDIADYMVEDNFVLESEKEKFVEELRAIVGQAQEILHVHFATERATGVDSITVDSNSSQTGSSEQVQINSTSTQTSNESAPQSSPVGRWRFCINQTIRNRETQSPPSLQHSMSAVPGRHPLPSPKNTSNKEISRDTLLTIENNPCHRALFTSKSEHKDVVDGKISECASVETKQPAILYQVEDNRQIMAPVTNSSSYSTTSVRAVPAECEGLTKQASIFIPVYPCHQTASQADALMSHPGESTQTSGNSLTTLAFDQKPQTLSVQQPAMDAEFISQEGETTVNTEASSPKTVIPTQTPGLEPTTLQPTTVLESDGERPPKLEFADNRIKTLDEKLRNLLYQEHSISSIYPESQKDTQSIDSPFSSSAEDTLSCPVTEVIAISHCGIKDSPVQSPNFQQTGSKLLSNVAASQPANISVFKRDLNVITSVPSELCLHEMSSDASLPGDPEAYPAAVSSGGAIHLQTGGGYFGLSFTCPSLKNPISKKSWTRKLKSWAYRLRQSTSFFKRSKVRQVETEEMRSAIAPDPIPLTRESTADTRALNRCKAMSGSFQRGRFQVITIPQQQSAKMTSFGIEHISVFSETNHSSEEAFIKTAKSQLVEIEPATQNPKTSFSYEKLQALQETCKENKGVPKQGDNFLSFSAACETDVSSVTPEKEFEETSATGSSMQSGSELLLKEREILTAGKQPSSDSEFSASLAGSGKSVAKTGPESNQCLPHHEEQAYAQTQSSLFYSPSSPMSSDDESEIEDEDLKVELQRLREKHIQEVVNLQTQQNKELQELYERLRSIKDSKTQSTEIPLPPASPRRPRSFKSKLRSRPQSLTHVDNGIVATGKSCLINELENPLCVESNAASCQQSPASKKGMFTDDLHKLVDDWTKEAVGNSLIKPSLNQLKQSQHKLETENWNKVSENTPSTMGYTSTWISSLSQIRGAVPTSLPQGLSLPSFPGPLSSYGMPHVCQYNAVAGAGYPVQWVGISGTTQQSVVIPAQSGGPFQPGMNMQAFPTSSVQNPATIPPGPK
# ACVR2B, sequence (Q13705 whole entry): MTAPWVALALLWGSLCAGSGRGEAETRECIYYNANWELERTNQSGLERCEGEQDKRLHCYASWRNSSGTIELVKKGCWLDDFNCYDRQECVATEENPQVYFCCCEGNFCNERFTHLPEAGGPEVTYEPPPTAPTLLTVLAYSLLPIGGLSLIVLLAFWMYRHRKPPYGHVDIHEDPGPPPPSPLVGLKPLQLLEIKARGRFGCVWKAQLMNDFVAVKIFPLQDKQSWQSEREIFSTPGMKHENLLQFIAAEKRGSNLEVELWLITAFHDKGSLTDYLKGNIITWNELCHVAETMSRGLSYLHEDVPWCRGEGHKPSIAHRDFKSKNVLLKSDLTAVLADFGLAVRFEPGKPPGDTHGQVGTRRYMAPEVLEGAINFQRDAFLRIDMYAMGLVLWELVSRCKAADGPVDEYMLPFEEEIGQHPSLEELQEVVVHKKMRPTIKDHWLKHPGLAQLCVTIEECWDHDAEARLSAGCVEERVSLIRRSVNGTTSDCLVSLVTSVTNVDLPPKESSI
compound,measurement,setting,value
"CC(=O)c1cccc(-c2cnc3ccc(NCC4CC4)nn23)c1 [compound 1, K00135]",Ki,[1],229 ± 100 nM
same,ΔTm inhibitor 1,[2],3.6 °C
same,ΔTm inhibitor 1,[3],2.9 °C
same,ΔTm inhibitor 1,[4],3.4 °C
same,ΔTm inhibitor 1,[5],7.4 °C
same,ΔTm inhibitor 1,[6],2.5 °C
same,ΔTm inhibitor 1,[7],10.7 °C
same,ΔTm inhibitor 1,[8],3.4 °C
same,ΔTm inhibitor 1,[9],9.5 °C
same,ΔTm inhibitor 1,[10],0.3 °C
same,ΔTm inhibitor 1,[11],1.1 °C
same,ΔTm inhibitor 1,[12],2.6 °C
same,ΔTm inhibitor 1,[13],1.1 °C
same,ΔTm inhibitor 1,[14],1.1 °C
same,ΔTm inhibitor 1,[15],0.0 °C
same,ΔTm inhibitor 1,[16],0.5 °C
same,ΔTm inhibitor 1,[17],1.1 °C
same,ΔTm wild type CLK1,[18],7.2 °C
same,ΔTm wild type CLK3,[19],1.4 °C
"CCN1/C(=C/C(C)=O)Sc2ccc(OC)cc21 [compound 2, TG003]",ΔTm inhibitor 2,[4],0.7 °C
same,ΔTm inhibitor 2,[20],-0.6 °C
same,ΔTm inhibitor 2,[6],0.4 °C
same,ΔTm inhibitor 2,[7],0.2 °C
same,ΔTm inhibitor 2,[21],-0.6 °C
same,ΔTm inhibitor 2,[22],0.3 °C
same,ΔTm inhibitor 2,[23],1.1 °C
same,ΔTm inhibitor 2,[24],0.5 °C
same,ΔTm inhibitor 2,[10],0.0 °C
same,ΔTm inhibitor 2,[11],0.4 °C
same,ΔTm inhibitor 2,[12],0.7 °C
same,ΔTm inhibitor 2,[13],-0.1 °C
same,ΔTm inhibitor 2,[14],-0.9 °C
same,ΔTm inhibitor 2,[15],-0.3 °C
same,ΔTm inhibitor 2,[25],0.2 °C
same,ΔTm inhibitor 2,[26],-0.2 °C
same,ΔTm inhibitor 2,[27],0.4 °C
same,ΔTm inhibitor 2,[28],0.0 °C
same,ΔTm inhibitor 2,[16],0.7 °C
same,ΔTm inhibitor 2,[29],-0.2 °C
same,ΔTm inhibitor 2,[17],0.0 °C
"Nc1nccc(-c2ccc3noc(-c4ccc(Cl)cc4)c3c2)n1 [compound 4, K00972]",ΔTm inhibitor 4,[3],1.6 °C
same,ΔTm inhibitor 4,[5],0.0 °C
same,ΔTm inhibitor 4,[20],1.5 °C
same,ΔTm inhibitor 4,[30],0.5 °C
same,ΔTm inhibitor 4,[8],2.2 °C
same,ΔTm inhibitor 4,[22],0.2 °C
same,ΔTm inhibitor 4,[9],0.9 °C
same,ΔTm inhibitor 4,[23],0.3 °C
same,ΔTm inhibitor 4,[26],0.1 °C
same,ΔTm inhibitor 4,[27],0.5 °C
same,ΔTm inhibitor 4,[28],0.4 °C
same,ΔTm inhibitor 4,[29],0.2 °C
same,ΔTm wild type CLK1,[18],5.7 °C
same,ΔTm wild type CLK3,[19],0.1 °C
